Data taken from patent publication US7598245B2 (Vertex Pharmaceuticals Incorporated, priority 2003, dated 2009).

Tests used:
Assay type in all cases: biochemical
[1] = target: T1, human Src kinase (Homo sapiens, UniProt P12931); experiment: Src inhibition assay B: spectrophotometric (uv-vis) coupled enzyme assay; settings: 100 μM ATP
T1 construct: 25 nM of recombinant human Src kinase
Experimental: The compounds are evaluated as inhibitors of human Src kinase using either a radioactivity-based assay or spectrophotometric assay.
Src Inhibition Assay B: Spectrophotometric Assay
The ADP produced from ATP by the human recombinant Src kinase-catalyzed phosphorylation of poly Glu-Tyr substrate is quantified using a coupled enzyme assay [Fox et al. Protein Sci. 1998, 7, 2249]. In this assay one molecule of NADH is oxidised to NAD for every molecule of ADP produced in the kinase reaction. The disappearance of NADH is conveniently followed at 340 nm.
The following are the final concentrations of the assay components: 0.025 M HEPES (pH 7.6), 10 mM MgCl2, 2 mM DTT, 0.25 mg/ml poly Glu-Tyr, and 25 nM of recombinant human Src kinase. Final concentrations of the components of the coupled enzyme system are 2.5 mM phosphoenolpyruvate, 200 μM NADH, 30 μg/ml pyruvate kinase and 10 μg/ml lactate dehydrogenase.
In a typical assay, all the reaction components with the exception of ATP are pre-mixed and aliquoted into assay plate wells. Inhibitors dissolved in DMSO are added to the wells to give a final DMSO concentration of 2.5%. The assay plate is incubated at 30° C. for 10 min before initiating the reaction with 100 μM ATP. The absorbance change at 340 nm with time, the rate of the reaction, is monitored on a molecular devices plate reader. The data of rate as a function of the inhibitor concentration is fitted to competitive inhibition kinetics model to get the Ki for the compound.

[2] = target: T2, Aurora-2 (Homo sapiens, UniProt O14965); experiment: Inhibition of AUR-2, coupled enzyme assay
T2 construct: addition of 10 μL of Aurora-2 stock solution to give a final concentration of 70 nM
T2 sequence (O14965 1-403): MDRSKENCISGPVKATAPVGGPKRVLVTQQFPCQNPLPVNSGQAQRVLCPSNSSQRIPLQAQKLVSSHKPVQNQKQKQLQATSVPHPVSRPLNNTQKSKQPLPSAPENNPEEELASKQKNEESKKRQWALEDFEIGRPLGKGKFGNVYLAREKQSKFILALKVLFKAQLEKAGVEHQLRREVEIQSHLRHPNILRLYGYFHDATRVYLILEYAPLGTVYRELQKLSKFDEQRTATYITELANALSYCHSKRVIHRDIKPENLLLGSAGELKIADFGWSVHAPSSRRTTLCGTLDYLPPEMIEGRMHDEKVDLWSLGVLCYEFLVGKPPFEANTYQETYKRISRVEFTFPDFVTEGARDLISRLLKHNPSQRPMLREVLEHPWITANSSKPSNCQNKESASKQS
Experimental: Compounds are screened in the following manner for their ability to inhibit Aurora-2 using a standard coupled enzyme assay (Fox et al (1998) Protein Sci 7, 2249). To an assay stock buffer solution containing 0.1M HEPES 7.5, 10 mM MgCl2, 1 mM DTT, 25 mM NaCl, 2.5 mM phosphoenolpyruvate, […], 30 mg/ml pyruvate kinase, 10 mg/ml lactate dehydrogenase, 40 mM ATP, and 800 μM peptide (LRRASLG, American Peptide, Sunnyvale, Calif.) is added a DMSO solution of a compound of the present invention to a final concentration of 30 μM. The resulting mixture is incubated at 30° C. for 10 min. The reaction was initiated by the addition of 10 μL of Aurora-2 stock solution to give a final concentration of 70 nM in the assay. The rates of reaction are obtained by monitoring absorbance at 340 nm over a 5 minute read time at 30° C. using a BioRad Ultramark plate reader (Hercules, Calif.). The Ki values are determined from the rate data as a function of inhibitor concentration.

[3] = target: T3, c-KIT (Homo sapiens, UniProt P10721); experiment: Inhibition of c-KIT, radiometric filter-binding assay; settings: 700 μM ATP, pE4Y substrate
T3 construct: 0.02% BSA and 25 nM c-KIT
T3 sequence (P10721 26-976): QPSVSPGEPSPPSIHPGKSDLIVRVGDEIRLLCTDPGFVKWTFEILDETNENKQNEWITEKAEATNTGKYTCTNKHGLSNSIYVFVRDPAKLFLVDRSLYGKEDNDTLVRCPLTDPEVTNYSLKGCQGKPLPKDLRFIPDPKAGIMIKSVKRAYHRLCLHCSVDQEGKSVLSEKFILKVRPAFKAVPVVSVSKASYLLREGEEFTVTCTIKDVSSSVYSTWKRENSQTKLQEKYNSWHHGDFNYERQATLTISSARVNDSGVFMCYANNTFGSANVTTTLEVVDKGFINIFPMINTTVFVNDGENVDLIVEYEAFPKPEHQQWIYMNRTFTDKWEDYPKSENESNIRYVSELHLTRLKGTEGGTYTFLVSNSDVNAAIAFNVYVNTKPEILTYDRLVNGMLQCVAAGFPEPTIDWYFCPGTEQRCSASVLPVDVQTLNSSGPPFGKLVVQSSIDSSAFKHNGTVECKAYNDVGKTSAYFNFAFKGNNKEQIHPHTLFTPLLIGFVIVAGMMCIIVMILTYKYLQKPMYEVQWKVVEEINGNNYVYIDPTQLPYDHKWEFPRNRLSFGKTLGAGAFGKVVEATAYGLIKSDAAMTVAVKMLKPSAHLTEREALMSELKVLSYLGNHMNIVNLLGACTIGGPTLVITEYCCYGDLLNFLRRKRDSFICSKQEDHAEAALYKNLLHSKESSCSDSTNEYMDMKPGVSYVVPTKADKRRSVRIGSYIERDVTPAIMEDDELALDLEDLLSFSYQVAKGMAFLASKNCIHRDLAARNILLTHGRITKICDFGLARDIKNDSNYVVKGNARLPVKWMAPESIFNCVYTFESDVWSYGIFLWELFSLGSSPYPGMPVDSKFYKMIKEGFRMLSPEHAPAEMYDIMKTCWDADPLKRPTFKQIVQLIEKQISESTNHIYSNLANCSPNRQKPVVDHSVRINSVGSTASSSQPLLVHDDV
Experimental: Compounds are screened for their ability to inhibit c-KIT activity using a radiometric filter-binding assay. This assay monitors the ^33P incorporation into a substrate poly(Glu, Tyr) 4:1 (pE4Y). Reactions are carried out in a solution containing 100 mM HEPES (pH 7.5), 10 mM MgCl2, 25 mM NaCl, 1 mM DTT, 0.01% BSA and 2.5% DMSO. Final substrate concentrations in the assay were 700 μM ATP and 0.5 mg/mL pE4Y (both from Sigma Chemicals, St Louis, Mo.). The final concentration of compounds is generally between 0.01 and 5 μM. Typically, a 12-point titration is conducted by preparing serial dilutions from 10 mM DMSO stock of test compound. Reactions were carried out at room temperature.
Two assay solutions are prepared. Solution 1 contains 100 mM HEPES (pH 7.5), 10 mM MgCl2, 25 mM NaCl, 1 mg/ml pE4Y and 1.4 mM ATP (containing 0.5 μCi of [γ-^33P]ATP for each reaction). Solution 2 contains 100 mM HEPES (pH 7.5), 10 mM MgCl2, 25 mM NaCl, 2 mM DTT, 0.02% BSA and 25 nM c-KIT. The assay is run on a 96 well plate by mixing 33 μL of Solution1 and 1.65 μL of the test compounds. The reaction is initiated with 33 μL of Solution2. After incubation for 20 minutes at room temperature, the reaction was stopped with 50 μL of 10% TCA containing 0.2 mM of ATP. All of the reaction volume is then transferred to a filter plate and washed with 5% TCA by a Harvester9600 from TOMTEC (Hamden, Conn.). The amount of ^33P incorporation into pE4y is analyzed by a Packard TopCount Microplate Scintillation Counter (Meriden, Conn.). The data is fitted using Prism software to get an IC50 or Ki.

T1 sequence (P12931 whole entry): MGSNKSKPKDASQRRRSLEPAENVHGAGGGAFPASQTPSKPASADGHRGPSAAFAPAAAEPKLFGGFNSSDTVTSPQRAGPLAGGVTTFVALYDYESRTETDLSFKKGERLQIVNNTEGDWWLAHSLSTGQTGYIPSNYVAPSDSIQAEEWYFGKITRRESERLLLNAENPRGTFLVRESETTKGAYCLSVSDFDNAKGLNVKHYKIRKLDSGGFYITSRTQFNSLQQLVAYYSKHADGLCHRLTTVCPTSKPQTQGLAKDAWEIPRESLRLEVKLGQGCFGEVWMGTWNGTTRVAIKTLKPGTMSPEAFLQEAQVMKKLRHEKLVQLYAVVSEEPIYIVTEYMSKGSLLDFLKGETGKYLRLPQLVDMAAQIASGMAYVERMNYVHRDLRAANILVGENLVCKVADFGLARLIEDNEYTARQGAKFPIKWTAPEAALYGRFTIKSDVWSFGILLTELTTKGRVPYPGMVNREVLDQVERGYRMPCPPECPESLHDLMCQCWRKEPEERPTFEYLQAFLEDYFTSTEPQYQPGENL

Compound | Ki [1] | Ki [2] | Ki [3]
COc1cc(Nc2ncn(-c3ccccc3)n2)cc(OC)c1OC [Compound I-42] | < 500 nM | 100 to 1000 nM | –
CCOc1cccc(Nc2ncn(-c3ccccc3)n2)c1 [Compound I-45] | < 500 nM | > 1000 nM | < 50 nM
OC[C@H]1CCCN(c2cc(-n3cnc(Nc4ccccc4)n3)ccn2)C1 [Compound I-65] | < 500 nM | 100 to 1000 nM | –
COCC(=O)N1CCCN(c2cc(-n3cnc(Nc4ccccc4)n3)ccn2)CC1 [Compound I-71] | > 1000 nM | 100 to 1000 nM | –
N#CCC(=O)N1CCCN(c2cc(-n3cnc(Nc4ccccc4)n3)ccn2)CC1 [Compound I-72] | 500 to 1000 nM | 100 to 1000 nM | 50 to 500 nM
CC(=O)N1[C@H](C)CN(c2cc(-n3cnc(Nc4ccccc4)n3)ccn2)C[C@@H]1C [Compound I-74] | < 500 nM | < 100 nM | 50 to 500 nM
CCOC(=O)c1ccc(Nc2ncn(-c3ccnc(N4C[C@@H](C)N(C(C)=O)[C@@H](C)C4)c3)n2)cc1 [Compound I-75] | < 500 nM | < 100 nM | < 50 nM
CC(=O)N1[C@H](C)CN(c2cc(-n3cnc(Nc4ccc(NC(=O)N(C)C)cc4)n3)ccn2)C[C@@H]1C [Compound I-77, 3-(4-{1-[2-(4-Acetyl-3,5-dimethyl-piperazin-1-yl)-pyridin-4-yl]-1H-[1,2,4]triazol-3-ylamino}-phenyl)-1,1-dimethyl-urea] | 500 to 1000 nM | < 100 nM | 50 to 500 nM
CC(=O)N1[C@H](C)CN(c2cc(-n3cnc(Nc4ccc(NC(=O)C(F)(F)F)cc4)n3)ccn2)C[C@@H]1C [Compound I-79] | < 500 nM | < 100 nM | 50 to 500 nM
CC(=O)N1[C@H](C)CN(c2cc(-n3cnc(Nc4ccc(N)cc4)n3)ccn2)C[C@@H]1C [Compound I-82] | < 500 nM | < 100 nM | 50 to 500 nM
CC(=O)N1[C@H](C)CN(c2cc(-n3cnc(Nc4ccc(N5CCOCC5)cc4)n3)ccn2)C[C@@H]1C [Compound I-85, 1-(2,6-Dimethyl-4-{4-[3-(4-morpholin-4-yl-phenylamino)-[1,2,4]triazol-1-yl]-pyridin-2-yl}-piperazin-1-yl)-ethanone] | 500 to 1000 nM | < 100 nM | 50 to 500 nM
CC(=O)N1[C@H](C)CN(c2cc(-n3cnc(Nc4ccc(NC(=O)OC(C)C)cc4)n3)ccn2)C[C@@H]1C [Compound I-89] | 500 to 1000 nM | < 100 nM | 50 to 500 nM

Now from value to molecule:

Ki [1] | Ki [2] | Ki [3] | Compound
< 500 nM | 100 to 1000 nM | – | COc1cc(Nc2ncn(-c3ccc(C#N)cc3)n2)cc(OC)c1OC [Compound I-43]
> 1000 nM | > 1000 nM | < 50 nM | CC(C)Oc1cccc(Nc2ncn(-c3ccccc3)n2)c1 [Compound I-46]
> 1000 nM | 100 to 1000 nM | 50 to 500 nM | CC(=O)N1CCCN(c2cc(-n3cnc(Nc4ccccc4)n3)ccn2)CC1 [Compound I-66]
> 1000 nM | 100 to 1000 nM | – | CCC(=O)N1CCCN(c2cc(-n3cnc(Nc4ccccc4)n3)ccn2)CC1 [Compound I-67]
< 500 nM | < 100 nM | 50 to 500 nM | c1ccc(Nc2ncn(-c3ccnc(N4CCCCCC4)c3)n2)cc1 [Compound I-73]
< 500 nM | < 100 nM | 50 to 500 nM | COC(=O)Nc1ccc(Nc2ncn(-c3ccnc(N4C[C@@H](C)N(C(C)=O)[C@@H](C)C4)c3)n2)cc1 [Compound I-78]
< 500 nM | < 100 nM | 50 to 500 nM | CCCOC(=O)Nc1ccc(Nc2ncn(-c3ccnc(N4C[C@@H](C)N(C(C)=O)[C@@H](C)C4)c3)n2)cc1 [Compound I-88]
< 500 nM | 100 to 1000 nM | < 50 nM | c1ccc(-n2cnc(Nc3ccnc(N4CCOCC4)c3)n2)cc1 [Compound I-105]
